In brackets after ≈: the same amount, converted by molar mass. Where two headings read alike, the source gives them in different places.
Assays:
S. mutans = assay: microbe, parasite or virus in culture; format: cell-based, Streptococcus mutans; conditions: for MIC50: Streptococcus mutans; for Selectivity: growth versus biofilm
Method: Cell viability of S. mutans, S. gordonii, S. sanguinis, Aggregatibacter actinomycetemcomitans and Actinomyces. […] The number of colony-forming units (CFU) per milliliter of each sample treated with selected compounds at different concentrations was enumerated after incubation for 24 h at 37° C. and compared to the values obtained from the DMSO control group. Overnight broth cultures were transferred by 1:50 dilutions into fresh THB medium and were allowed to grow until mid-exponential phase (OD470 nm 0.6) before transfer to 96-well plates containing desired concentration of the compound. After 16 h incubation, bacterial growth was measured at OD470, and normalized to the DMSO control (100%).
Cell viability of S. mutans and commensal S. gordonii and S. sanguinis. Effects of lead small molecules on cell viability were examined. The number of colony-forming units (CFU) per milliliter for each compound at different concentrations was determined after incubation for 24 h at 37° C. and compared to the values obtained from the DMSO control group.
Cell viability of S. mutans and commensal S. gordonii and S. sanguinis. […] DMSO served as a control group and provided a relative comparison for the number of colony-forming units (CFU) per milliliter for each compound at different concentrations was determined after incubation for 24 h at 37° C. The final concentration of DMSO used in the assays was 1%.

S. mutans biofilm = S. mutans biofilm formation and inhibition assay (96-well plates, crystal violet); format: cell-based, Streptococcus mutans
Method: Biofilm assays using 96-well flat-bottom polystyrene microtiter plates were performed to evaluate S. mutans biofilm formation at various conditions as described (Liu et al. (2011) Antimicrobial Agents and Chemotherapy 55, 2679; Zhang et al. (2015) International Journal of Antimicrobial Agents 46, 174), the disclosures of which are incorporated herein by reference in their entirety). Each assay was replicated three times. Compounds that inhibited biofilm formation at minimum concentration (MBIC) were determined by serial dilutions.
S. mutans biofilm formation and inhibition assays. […] Each assay was replicated three times. Minimum biofilm inhibitory concentration (MBIC) of compounds was determined by serial dilutions.
S. mutans biofilm formation and inhibition assays. Biofilm assays using 96-well flat-bottom polystyrene microtiter plates were performed to evaluate S. mutans biofilm formation at various conditions as described. Each assay was replicated […]. Compounds that inhibited 50% biofilm formation were determined by serial dilutions.
S. mutans biofilm formation and inhibition assays. A well-established protocol to study S. mutans biofilm formation in 96-well flat-bottom polystyrene microtiter plates was used, in triplicate (Mattos-Graner, R. O.; Napimoga, M. H.; Fukushima, K.; Duncan, M. J.; Smith, D. J., Comparative analysis of Gtf isozyme production and diversity in isolates of Streptococcus mutans with different biofilm growth phenotypes. Journal of clinical microbiology 2004, 42 (10), 4586-4592). The stock solutions were made up in 100% DMSO, and final concentration of DMSO used in the assays was 1%. Minimum biofilm inhibitory concentration (MBIC) of compounds was determined by serial dilutions.

[1] = Table 2, >300 = no inhibition up to 300 μM, read-out: Growth Inhibition MIC50
[2] = Streptococcus mutans, Table 1, >500 = no inhibition up to 500 μM, read-out: Biofilm Inhibition IC50
[3] = Streptococcus mutans, Table 2, read-out: Biofilm Inhibition IC50
[4] = Table 6, chalcones, 200 μM, NI = no inhibition
[5] = read-out: S. mutans biofilm IC50
[6] = Table 4, stilbenes, average of at least 5 measurements, NI = no inhibition, read-out: Growth MIC50
[7] = Table 8, stilbenes, average of at least 5 measurements, NI = no inhibition
[8] = Streptococcus mutans, Table 4, stilbenes, NI = no inhibition, read-out: Biofilm IC50
[9] = Streptococcus mutans, Table 8, stilbenes, NI = no inhibition, read-out: Biofilm IC50

| SMILES | MIC50 (S. mutans; [1]) [µM] | IC50 (S. mutans biofilm; [2]) [µM] | IC50 (S. mutans biofilm; [3]) [µM] | other results |
| --- | --- | --- | --- | --- |
| O=C(Nc1ccccc1F)c1cc2cc([N+](=O)[O-])ccc2s1 [BM] | > 300 | 162 | 162 |  |
| NC(=O)c1ccc(NC(=O)c2ccc3ccccc3c2O)cc1 [BN] | > 300 | 56.9 | 56.9 |  |
| NC(=O)c1cccc(NC(=O)c2ccccc2-c2ccccc2)c1 [BO] | > 300 | 49.4 | 49.4 |  |
| NC(=O)c1ccc(NC(=O)c2cccc3ccccc23)cc1 [BR] | > 300 | 167 | 167 |  |
| NC(=O)c1cccc(NC(=O)c2cccc3ccccc23)c1 [BS] | > 300 | 195 | 195 |  |
| NCc1cccc(NC(=O)c2cc3ccccc3s2)c1 [BX] | > 300 | 209 | 209 |  |
| COC(=O)c1ccc(NC(=O)c2cc3cc([N+](=O)[O-])ccc3[nH]2)cc1 [BZ] | > 300 | 196 |  |  |
| O=C(/C=C/c1cccc(O)c1)c1ccccc1O [Compound 2] |  |  |  | Growth inhibition 200 μM (%) (S. mutans; [4]): 86 ± 0.5%; IC50 (S. mutans; Table 6, chalcones, NI = no inhibition, read-out: S. mutans Growth IC50): 32 ± 0.3 µM; Biofilm inhibition 200 μM (%) (S. mutans biofilm; [4]): 84 ± 3%; IC50 (S. mutans biofilm; Table 6, chalcones, read-out: S. mutans Biofilm IC50): 64 ± 4 µM |
| NC(=O)c1ccccc1NC(=O)c1cc2ccccc2s1 [Compound 3B] | > 300 | 45.6 | 45.6 |  |
| NC(=O)c1ccccc1NC(=O)c1c[nH]c2ccccc12 [Compound 3F] | > 300 | 146 | 146 |  |
| COc1ccc2[nH]c(C(=O)Nc3ccccc3C(N)=O)cc2c1 [Compound 3G] | > 300 | 68.8 | 68.8 |  |
| NC(=O)c1ccccc1NC(=O)c1cnc2ccc(Br)cc2c1 [Compound 3J] | > 300 | 106 | 106 |  |
| NC(=O)c1ccccc1NC(=O)c1cc2cc([N+](=O)[O-])ccc2o1 [Compound 3K] | > 300 | 103 | 103 |  |
| NC(=O)c1cccc(NC(=O)c2cc3cc([N+](=O)[O-])ccc3s2)c1 [Compound 3P] | > 300 | 42.3 | 42.3 |  |
| NC(=O)c1ccccc1OC(=O)c1cc2cc([N+](=O)[O-])ccc2s1 [Compound 3Q] | > 300 | 50.4 | 50.4 |  |
| NC(=O)c1cccc(NC(=O)c2cnc3ccccc3c2)c1 [Compound 3R] | > 300 | 8.6 | 8.6 |  |
| COC(=O)c1ccc(NC(=O)c2cnc3ccccc3c2)cc1 [Compound 3S] | > 300 | 92.3 | 92.3 |  |
| COC(=O)c1cccc(NC(=O)c2cc3cc([N+](=O)[O-])ccc3s2)c1 [Compound 3U] | > 300 | 54.4 | 54.4 |  |

| SMILES | MIC50 (S. mutans; [1]) [µM] | IC50 (S. mutans biofilm; [2]) [µM] | IC50 (S. mutans biofilm; [3]) [µM] | other results |
| --- | --- | --- | --- | --- |
| COC(=O)c1ccc(NC(=O)c2cc3ccccc3s2)cc1 [Compound 3V] | > 300 | 41.2 | 41.2 |  |
| COc1ccc2[nH]c(C(=O)Nc3cccc(C(N)=O)c3)cc2c1 [Compound 3W] | > 300 | 56.6 | 56.6 |  |
| NC(=O)c1cccc(NC(=O)c2cc3ccccc3s2)c1 [Compound 3X] | > 300 | 116 | 116 |  |
| NC(=O)c1ccc(NC(=O)c2cc3ccccc3s2)cc1 [Compound 3Y] | > 300 | 45.6 | 45.6 |  |
| NC(=O)c1cccc(NC(=O)c2cc3cc([N+](=O)[O-])ccc3o2)c1 [Compound 3Z] | > 300 | 38.8 | 38.8 |  |
| N=C(N)c1ccc(/C=C/c2ccc(C(=N)N)cc2O)cc1 [Compound 5] |  |  |  | S. mutans growth IC50 / MIC50 (S. mutans): 179 µM; effect on S. mutans growth (S. mutans; chalcones, up to 200 μM): did not possess any bactericidal or anti-biofilm properties; effect on S. mutans biofilm in the preliminary screen (S. mutans biofilm; chalcones, 200 μM): did not possess any bactericidal or anti-biofilm properties; IC50 (S. mutans biofilm; [5]): 104 µM |
| Oc1cc(O)cc(/C=C/c2ccc(O)c(O)c2)c1 [Compound 8] |  |  |  | Growth inhibition 200 μM (%) (S. mutans; [4]): 82 ± 2%; Biofilm inhibition 200 μM (%) (S. mutans biofilm; [4]): 81 ± 2%; IC50 (S. mutans biofilm; [5]): 52 µM |
| COc1ccc(/C=C/C(=O)c2ccc(OC)c(OC)c2)cc1O [Compound 13] |  |  |  | Growth inhibition 200 μM (%) (S. mutans; [4]): 30 ± 0.7%; growth inhibition at 200 μM (S. mutans; chalcones, 200 μM): 30%; activity of stilbenes against S. mutans growth (S. mutans; stilbenes): not active against biofilm and growth; Biofilm inhibition 200 μM (%) (S. mutans biofilm; [4]): 27 ± 4%; biofilm inhibition at 200 μM (S. mutans biofilm; chalcones, 200 μM): 30%; activity of stilbenes against S. mutans biofilm (S. mutans biofilm; stilbenes): not active against biofilm and growth |
| CC(C)(C)OC(=O)NCc1ccccc1NC(=O)c1cc2cc([N+](=O)[O-])ccc2[nH]1 [Compound 298C9] | > 300 |  | 26.8 |  |
| NCc1ccccc1NC(=O)c1cc2cc([N+](=O)[O-])ccc2[nH]1 [Compound 298C10] | > 300 |  | 98.3 |  |
| COC(=O)c1cccc(NC(=O)c2cc3ccccc3s2)c1 [Compound 298D5] | > 300 |  | 121 |  |
| NC(=O)c1ccccc1OC(=O)c1cnc2ccccc2c1 [Compound 298F7] | > 300 |  | 30.4 |  |
| COC(=O)c1cccc(NC(=O)c2ccc3ccccc3n2)c1 [Compound 298G5] | > 300 |  | 92.3 |  |
| COC(=O)c1ccc(NC(=O)c2ccc3ccccc3n2)cc1 [Compound 298G6] | > 300 |  | 106 |  |
| NC(=O)c1ccccc1OC(=O)c1ccc2ccccc2n1 [Compound 298G7] | > 300 |  | 105 |  |
| NC(=O)c1cccc(NC(=O)c2cc3cc([N+](=O)[O-])ccc3[nH]2)c1 [Compound 298b2] | > 300 |  | 138 |  |
| Oc1ccc(/C=C/c2ccc(O)cc2)cc1 [Entry 4] |  |  |  | MIC50 (S. mutans; [6]): 854 ± 58 µM (≈ 181 µg/mL); Selectivity (S. mutans; Table 4, stilbenes): 2.4; Growth MIC50 (S. mutans; [7]): 854 ± 58 µM; Selectivity (S. mutans; Table 8, stilbenes): 2.4; IC50 (S. mutans biofilm; [8]): 344 ± 17 µM; IC50 (S. mutans biofilm; [9]): 344 ± 17 µM |
| N=C(N)c1ccc(/C=C/c2ccc(C(=N)N)cc2O)cc1 [Entry 5] |  |  |  | MIC50 (S. mutans; [6]): 179 ± 23 µM (≈ 50.2 µg/mL); Growth MIC50 (S. mutans; [7]): 179 ± 23 µM; IC50 (S. mutans biofilm; [8]): 104 ± 7 µM; IC50 (S. mutans biofilm; [9]): 104 ± 7 µM |

Reference: patent US11866416B2, “Streptococcus mutans glucosyl transferase inhibitors for dental caries therapy” (UAB Research Foundation, priority 2018, dated 2024)
